“Also recorded” adds a separate entry of the source.
What was measured:
[1] = tested on: 4% DSS-induced colitis in C57BL/6N mice; assay: Survival study in 4% DSS-induced colitis; assay type: in vivo, mouse; conditions: WT mice, i.p. every alternative day
Excerpt: (§1) C57BL/6N and Mrgprb2−/− adult mice (6-8 weeks old) were obtained from CMMR and housed in cages for acclimatation for a week. C57BL/6N and Mrgprb2−/− mice were divided into four groups (N=5-6) (2% DSS in drinking water and water control). Controls were fed with regular water and the treatment groups were exposed to 2% DSS for 5 days (Day 0 to Day 5) and regular water till Day 12. DSS-Colitis Grade (36,000-50,000 MW) (MP Biomedicals, Santa Ana, CA) was used in this study. During experiments, these mice were given anaesthesia to harvest blood and organs for other biochemical and histology analysis. For the survival study with Mrgprb2/x2 agonists, C57BL/6N mice were grouped into […] (N=10) and fed with 4% DSS for 5 days (Day 0 to 5) and replaced with regular drinking water for the rest of the experiment. Meanwhile, Mrgprb2/x2 ligands were given to the animals every alternative day via i.p. injection 100 μL with 10 μg/kg mice. For the treatment study with Mrgprb2/x2 ligands, C57BL/6N mice were divided into 7 groups (N=8 per group). Six groups were receiving 2.5% DSS dissolved in drinking water for 5 days (Day 0 to Day 5) and regular water till Day 12 and the control group was receiving water from Day 0 to Day 12. These 6 groups exposed to 2.5% DSS were treated with Mrgprb2/x2 ligands or saline for every alternative day till Day 12. […]

[2] = tested on: pERK 1/2 MAPK pathway and STIM1 in LAD2 mast cells; assay: Western blot of LAD2 mast cells treated with Mrgprx2 ligands (pERK1/2, STIM1); assay type: cell-based; conditions: GE1111 25 μM added 30 min prior to agonists
Protocol: LAD2 cells were treated with agonists (1 μM Compound 48/80, P17, P17*A4, P17*A7 and 25 μM GE1111) for 15 min. For antagonist study, GE1111 (25 μM) were added 30 min prior to adding the agonists ([…] Compound 48/80, P17, P17*A4 and P17*A7). Cells were harvested and RIPA buffer containing cocktail mix of phosphatase and protease inhibitors was used to extract protein. Upon Bradford assay, harvested proteins were denatured with Lamelli buffer at 95° C. for 5 min. Protein samples were loaded in SDS-PAGE and transferred to nitrocellulose membrane. Membranes were blocked with 5% BSA for 1 hr and incubated at 4° C. overnight with primary antibodies (1:1000) in BSA (p44/42 MAPK (Erk1/2) (137F5) Rabbit mAb #4695, cell signalling, USA; Phospho-p44/42 MAPK (Erk1/2) (Thr202/Tyr204) (D13.14.4E) XP® Rabbit mAb #4370, Cell Signalling, USA; GAPDH (14C10) Rabbit mAb #2118, Cell signalling, USA; STIM1 Antibody #4916, Cell Signalling, USA) followed by (1:2000) HRP linked anti-rabbit secondary antibody (Anti-rabbit IgG, HRP-linked Antibody #7074) in 1 hr at room temperature. ECL was added and blots were visualized with Bio Rad CHEMIDOC™ MP imaging system.

[3] = tested on: 2.5% DSS-induced colitis in C57BL/6N mice; assay: Treatment study in 2.5% DSS-induced colitis, clinical parameters (DAI, colon, H&E); assay type: in vivo, mouse; conditions: WT mice, 2.5% DSS Day 0 to 5, ligands every alternative day to Day 12; P17 and analogues 150 μg/kg, CST-14 15 μg/kg, GE1111 300 μg/kg
Excerpt: as §1, with “mice.” for “mice. For the treatment study with Mrgprb2/x2 ligands, C57BL/6N mice were divided into 7 groups (N=8 per group). Six groups were receiving 2.5% DSS dissolved in drinking water for 5 days (Day 0 to Day 5) and regular water till Day 12 and the control group was receiving water from Day 0 to Day 12. These 6 groups exposed to 2.5% DSS were treated with Mrgprb2/x2 ligands or saline for every alternative day till Day 12.”
All animals were examined daily and the disease activity index (DAI) score was assessed as previously described by assessing stool consistency, presence of blood in stool and body weight change as summarised in Table 1. Percentage of body weight was calculated relative to the initial body weight at Day 0 [(Weight on a Day−Initial weight at Day 0/Initial weight at Day 0)×100].

[4] = tested on: cytokine and chemokine releases in the blood; assay: Cytokine array analysis of blood plasma; assay type: in vivo, mouse; conditions: mice exposed to 2.5% DSS, 40-target array
Protocol: The cytokine membranes were blocked with blocking buffer in room temperature for 1 hr. The blocking buffer was removed from the membranes and […] of plasma obtained from the treatment groups (WT+Water, WT+2% DSS, Mrgprb2−/−+Water and Mrgprb2−/−+2% DSS; Water+Saline, 2.5% DSS+Saline, 2.5% DSS+P17*A7 and 2.5% DSS+GE1111) diluted in blocking buffer (total volume 1 mL) were subjected to membrane containing array of antibodies anti-cytokines. The membranes were first incubated at 4 °C for 24 hr in the blocking buffer, following five washes with washing buffers (I and II) and then incubated with 1× biotin-conjugated anti-cytokines overnight at 4 °C. Membranes were washed again with washing buffers (I and II) 5 five times and incubated with 1×HRP-conjugated streptavidin for 2 hr at room temperature. Membranes were washed again, and 1 mL of detection buffer C and D were mixed and added to each membrane in dark for 2 min before imaging. Finally, array images were measured with ChemiDoc MP (Bio-Rad Laboratories, Hercules, CA). The detailed protocol can be referred to the instructions of a Cytokine Antibody Array Kit (ab133999—40 targets, Abcam).

[5] = tested on: M-CSF, BLC, G-CSF and sTNF RI in blood plasma; assay: ELISA of cytokines in blood plasma; assay type: in vivo, mouse; conditions: mice exposed to 2.5% DSS
Protocol: Concentrations of cytokines in blood plasma of the treatment groups (WT+Water, WT+2% DSS, Mrgprb2−/−+Water, Mrgprb2−/−+2% DSS, Water+Saline, 2.5% DSS+Saline, 2.5% DSS+P17, 2.5% DSS+P17*A4, 2.5% DSS+P17*A7, 2.5% DSS+CST-14 and 2.5% DSS+GE1111) were determined using ELISA kits (M-CSF-ab199084, Abcam; LIX—ab264611, Abcam; sTNF RI—ab202408, Abcam; G-CSF—ab197743, Abcam; BLC-EMCXCL13, Thermofisher) according to the manufacturer's protocol. Optical densities of the samples and standards were measured using PerkinElmer Victor X4. Cytokine concentrations were determined by comparing the optical density from the standard curve of each cytokine standards.

[6] = tested on: Mrgpra1 and Mrgprb2 expression in colon; assay: qRT-PCR of mouse orthologs of Mrgprx2 in colon; assay type: in vivo; conditions: WT mice, 2.5% DSS-induced colitis
Protocol: To assess the gene expression profile in colon, distal colons were used to isolate total RNA using Trizol. Total RNA was precipitated for 30 min in […] with isopropanol and glycogen. The precipitated RNA was then washed with 75% ethanol and resuspended in RNase-free water for first strand cDNA synthesis following the protocol from HiScript® II Q RT SuperMix (Vazyme biotech co., ltd, China). cDNA harvested were quantified by quantitative PCR (7300 Real-Time PCR System, Applied Biosystems, Forster City, CA). The expression of genes was examined using ChamQ™ SYBR Color qPCR Master Mix as specified by the manufacturer protocol. All primer sequences are shown in Supplementary Table S1. […] method was employed for data analysis with the internal control, glyceraldehyde-3-phosphate dehydrogenase (gapdh).

Mrgprx2 = target: T1, Mrgprx2 (Homo sapiens, UniProt Q96LB1); assay: PRESTO-Tango GPCR β-arrestin recruitment assay in Mrgprx2-transfected HTLA cells; assay type: cell-based
T1 construct: Tango fusion cassette; expressed in transfected cells; host or cells: HTLA cells
T1 sequence (Q96LB1 1-330): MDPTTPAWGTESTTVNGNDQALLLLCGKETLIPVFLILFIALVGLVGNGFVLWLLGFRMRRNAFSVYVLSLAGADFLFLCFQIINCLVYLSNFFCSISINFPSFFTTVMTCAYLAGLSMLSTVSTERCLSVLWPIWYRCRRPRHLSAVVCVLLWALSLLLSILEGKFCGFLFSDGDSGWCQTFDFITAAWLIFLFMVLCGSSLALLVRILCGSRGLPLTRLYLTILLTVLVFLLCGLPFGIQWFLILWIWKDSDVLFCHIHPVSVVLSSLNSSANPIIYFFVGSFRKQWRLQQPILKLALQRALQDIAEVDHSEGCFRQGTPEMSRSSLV
Protocol: HTLA cells were maintained in DMEM supplemented with 10% FBS, 2 μg/mL puromycin and 100 μg/mL hygromycin B in a humidified atmosphere at 37° C. in 5% CO2. One million cells were seeded in 100 mm cell culture dish (Day 1). Cells were transfected with 4 μg Tango-MRGPRX2 construct using Lipofectamine 2000 reagent (Day 2). On day 3, cells were harvested and 20,000 cells per well were plated in 80 μL medium into poly-L-lysine coated and rinsed 96-well white cell culture plates (PerkinElmer). On day 4, GE1111 (final concentration […]) is added 1 hr prior to the agonists or antagonist in dose response manner (Compound 48/80, P17, P17*A4, P17*A7 and GE1111). On day 5, medium and drugs were removed from the wells slowly (aspiration) and […] luciferase substrate solution (500 mM DTT, 10 mM CoA, 100 mM ATP, 80 mg/mL luciferin and triton lysis buffer) were added to each well. After incubation for 10 min at room temperature, luminescence was counted in PerkinElmer Victor X4. RLU (relative luminescence units) results were exported into Excel sheets and GraphPad Prism 10 was used for analysis of data. To measure constitutive basal activity, no ligand was added on day 4.

[7] = tested on: DSS-induced colitis in mice models; conditions: recent studies [41]-[44]; cited from earlier work

| Compound | survival of mice [1] | effect on agonist-induced pERK1/2 / STIM1 pathway [2] | severity of DSS-induced colitis [3] | cytokine and chemokine levels in the blood plasma (array) [4] | M-CSF, BLC and G-CSF levels in blood plasma [5] | expression of Mrgpra1 and Mrgprb2 in colon [6] | effect on agonist-induced β-arrestin recruitment (Mrgprx2; GE1111 (final concentration 10 PM) added 1 hr prior to the agonists) | GE1111 dose response on Mrgprx2 (no agonist) (Mrgprx2; Mrgprx2-transfected HTLA cells, GE1111 alone) | DSS-induced colitis symptoms [7] |
| --- | --- | --- | --- | --- | --- | --- | --- | --- | --- |
| COC(=O)c1cc2cc(NC(N)=O)ccc2cc1-c1cc2c3c(c(O)ccc3c1)C(C)C(C=O)=C2 (stereo not shown) [GE1111] | increased the survival rate; also recorded: mimicked the effect of the agonist on mice survival | antagonized this pathway | reduced the severity of DSS-induced colitis | significant modifications in most of the cytokine and chemokine levels | significant reduction in these cytokine levels | restored their expression to the levels of healthy mice | antagonized the agonist activity | behaved as an inverse agonist | – |
| O=c1c(O)c(-c2ccc(O)c(O)c2)oc2cc(O)cc(O)c12 [quercetin] | – | – | – | – | – | – | – | – | ameliorate DSS-induced colitis symptoms |
| cortistatin 14 [CST-14, reference compound] | increased the survival rate | – | reduced the severity of DSS-induced colitis | – | – | – | – | – | ameliorate DSS-induced colitis symptoms |
| protegrin | – | – | – | – | – | – | – | – | ameliorate DSS-induced colitis symptoms |
